According to article PMC6385813, “Macrocyclisation of small peptides enabled by oxetane incorporation” (Chemical Science, 2019):
pIC50: −log10 of the molar value. Read-outs that look alike come from different tables or passages of the source. Positions of bridges follow the written chain, without caps; N, C: chain ends. Residues, ends and D or L forms follow the SMILES beside them.

Columns and labels:
[1] = biological target: T1, porcine Aminopeptidase N (APN) (Sus scrofa, UniProt P15145); assay: porcine Aminopeptidase N inhibition, spectrophotometric; assay type: biochemical
T1 construct: aminopeptidase from porcine kidney (pAPN, Sigma Aldrich); purchased Sigma Aldrich; host or cells: porcine kidney (microsomal preparation)
T1 sequence (P15145 1-963): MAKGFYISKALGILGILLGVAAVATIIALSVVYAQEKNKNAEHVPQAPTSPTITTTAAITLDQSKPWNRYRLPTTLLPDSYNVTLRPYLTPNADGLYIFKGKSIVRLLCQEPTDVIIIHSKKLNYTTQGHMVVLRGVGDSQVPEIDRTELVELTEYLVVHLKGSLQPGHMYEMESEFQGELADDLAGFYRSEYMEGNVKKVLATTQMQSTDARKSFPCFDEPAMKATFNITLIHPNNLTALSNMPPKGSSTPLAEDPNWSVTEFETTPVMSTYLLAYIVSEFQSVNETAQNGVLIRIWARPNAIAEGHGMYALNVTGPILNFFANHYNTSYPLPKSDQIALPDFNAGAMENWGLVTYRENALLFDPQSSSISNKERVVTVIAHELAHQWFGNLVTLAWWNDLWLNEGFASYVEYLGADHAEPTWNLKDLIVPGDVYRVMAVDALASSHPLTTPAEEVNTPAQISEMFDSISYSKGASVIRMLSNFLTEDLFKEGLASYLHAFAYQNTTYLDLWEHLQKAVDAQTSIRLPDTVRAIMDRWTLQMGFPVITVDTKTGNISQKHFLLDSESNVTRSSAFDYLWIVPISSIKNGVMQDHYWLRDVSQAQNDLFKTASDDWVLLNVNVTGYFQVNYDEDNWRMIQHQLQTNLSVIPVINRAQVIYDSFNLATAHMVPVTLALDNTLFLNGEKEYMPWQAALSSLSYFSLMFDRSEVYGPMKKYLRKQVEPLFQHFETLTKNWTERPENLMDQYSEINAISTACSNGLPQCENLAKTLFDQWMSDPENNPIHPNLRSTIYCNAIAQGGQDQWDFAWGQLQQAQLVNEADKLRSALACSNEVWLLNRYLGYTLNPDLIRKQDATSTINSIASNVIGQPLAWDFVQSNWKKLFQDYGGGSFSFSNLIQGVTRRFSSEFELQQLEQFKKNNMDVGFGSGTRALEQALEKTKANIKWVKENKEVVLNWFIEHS
Text: Studies to explore the impact of oxetane modification on the bioactivity of the derived cyclic peptides were undertaken. cCNGRC (26) is known to target Aminopeptidase N (APN), a transmembrane zinc-dependent metalloprotease involved in a variety of processes, including blood pressure regulation, cell migration, viral uptake, cell survival, and angiogenesis.[18],[19] Both oxetane modified derivative 22 and cCNGRC (26) were examined for their inhibitory activity towards porcine APN using a spectrophotometric assay (Table 2).[19]
4. In vitro inhibition assay of aminopeptidase N with oxetane modified peptide 22 and parent
Peptide 26 was synthesised following a procedure by Piras et al.[10] using HCTU as coupling reagent and NMM as base. Oxidation was performed by on-resin cyclization as described for the biotin labelled […]
For the determination of IC50 values of oxetane modified peptide 22 and parent peptide 26, a protocol published by Piras et al.[10] was followed using L-leucine-p-nitroanilide as substrate and microsomal aminopeptidase from porcine kidney (pAPN, Sigma Aldrich) (18 units/mg protein). IC50 values were calculated by following the formation of p-nitroaniline. Formation of p-nitroaniline was monitored by measurement of the UV absorption at 405 nm on a Hidex Sense plate reader. […]

[2] = stability of oxetane to side-chain deprotection with TFA; assay type: physicochemical; details: 70% TFA/20% CH2Cl2/10% TIS, 2.5 h (global side-chain deprotection including Arg Pbf)
Text: Macrocyclisations not involving head-to-tail ring closure have also been examined. Specifically, the formation of disulphide containing macrocycles through oxidative cyclisation of cysteine side chains has been explored (Scheme 5). Treatment of 2, whose synthesis was described in Scheme 3, with iodine provided the 17-membered macrocycle by way of trityl deprotection and disulphide bond formation. Further reaction with TFA in the presence of the cation scavenger triisopropylsilane (TIS) facilitated removal of all the side chain protecting groups providing 22 after reverse-phase HPLC purification. […] Smaller 11- and 14-membered macrocycles 23 and 24 were also conveniently produced in good yields using this methodology.
[formula] Scheme 5 Oxetane modified cyclic peptides by disulphide bond formation.^a^,^b^aReagents and conditions: (a) I2 (3.0 equiv.), MeOH, 1 h; (b) 70% TFA/20% CH2Cl2/10% TIS, 2.5 h. ^bBond formed in macrocyclisation indicated in red. ^cTFA step omitted; yield in parenthesis for the cyclisation of linear peptide with C?O rather than oxetane in backbone. ^dData taken from [ref. 14].
Fmoc-Cys(Trt)-Asn(Trt)-GOx-Arg(Pbf)-Cys(Trt)-OtBu (2)
Diethylamine (1.0 mL) was added to a solution of Fmoc-GOx-Arg(Pbf)-Cys(Trt)-OtBu (127) […]
and the reaction mixture was stirred at room temperature for 1 h. […]

## N=C(N)NCCC[C@@H]1NC(=O)CNC(=O)[C@H](CC(N)=O)NC(=O)[C@@H](N)CSSC[C@@H](C(=O)O)NC1=O [cCNGRC (26), reference compound] (H-CNGRC-OH; disulfide 1-5)
[1]
  pIC50: 3.67

## N=C(N)NCCC[C@@H]1NC2(CNC(=O)[C@H](CC(N)=O)NC(=O)[C@@H](N)CSSC[C@@H](C(=O)O)NC1=O)COC2 [Compound 22, Cyclo(H-Cys-Asn-GOx-Arg-Cys-OH)]
[2]
  oxetane stability to acid: survives the strongly acid conditions
[1]; read-out: IC50
  pIC50: 3.76
